Experimental data taken from ChEMBL document CHEMBL4765266, “Design, synthesis and structure-activity relationships of 4-phenyl-1H-1,2,3-triazole phenylalanine derivatives as novel HIV-1 capsid inhibitors with promising antiviral activities” (Eur J Med Chem, 2020).
Active and inactive are the calls of the source. The rule behind the calls is not given here.

How the values were obtained:
[1] = tested on: Human immunodeficiency virus 1; assay: Antiviral activity against HIV1 NL4-3 infected in human TZM-bl cells assessed as reduction in virus induced cytopathic effect measured after 2 days by luciferase gene expression assay; assay type: functional, organism-based; conditions: Human immunodeficiency virus 1, NL4-3, TZM-bl, 48 h
TZM = assay: Cytotoxicity against in human TZM-bl cells assessed as reduction in cell viability measured after 2 days by CytoTox-Glo cytotoxicity assay; conditions: 48 h
in vitro [2] = conditions: human, TZM-bl cells
Description: Selectivity index, ratio of CC50 for human TZM-bl cells to EC50 for HIV1 NL4-3 infected in human TZM-bl cells

[3] = human, microsomes, 1 h
[4] = human, microsomes, 1 h; remark: listed apart in the source
[5] = Binding affinity to HIV1 NL4-3 capsid protein hexamer assessed as dissociation constant by SPR analysis; parameters: species or system Human immunodeficiency virus 1
[6] = Binding affinity to HIV1 NL4-3 capsid protein monomer assessed as dissociation constant by SPR analysis; parameters: species or system Human immunodeficiency virus 1
[7] = tested on: Human immunodeficiency virus 1; assay: Antiviral activity against HIV1 NL4-3 Env-deficient pseudotype virus infected in human U87/CD4/CCR5 cells assessed by reduction in viral production in early stage measured after 48 hrs by luciferase activity based single-round infection assay; assay type: functional, organism-based; conditions: Human immunodeficiency virus 1, NL4-3, U87/CD4/CCR5, 48 h
[8] = tested on: Human immunodeficiency virus 1; assay: Antiviral activity against HIV1 NL4-3 Env-deficient pseudotype virus infected in human U87/CD4/CCR5 cells assessed by reduction in viral production in late stage measured after 48 hrs by luciferase activity based single-round infection assay; assay type: functional, organism-based; conditions: Human immunodeficiency virus 1, NL4-3, U87/CD4/CCR5, 48 h
[9] = tested on: Human immunodeficiency virus 1; assay: Antiviral activity against HIV1 NL4-3 Env-pseudotype virus in human U87/CD4/CCR5 cells assessed as reduction in p24 production at 10 uM by ELISA reader relative to control; assay type: functional
[10] = Metabolic stability in human plasma assessed as parent compound remaining after 10 mins by LC/MS/MS method; assay type: ADME, cell-free
[11] = Metabolic stability in human plasma assessed as parent compound remaining after 30 mins by LC/MS/MS method; assay type: ADME, cell-free; conditions: 0.5 h
[12] = Metabolic stability in human plasma assessed as parent compound remaining after 60 mins by LC/MS/MS method; assay type: ADME, cell-free; conditions: 1 h
[13] = Metabolic stability in human plasma assessed as parent compound remaining after 120 mins by LC/MS/MS method; assay type: ADME, cell-free; conditions: 2 h
U87/CD4/CCR5 [14] = assay: Induction of HIV1 NL4-3 capsid protein assembly at 50 uM measured every 1 min for 19 mins by Spectrophotometer method; conditions: Human immunodeficiency virus 1
U87/CD4/CCR5 [15] = assay: Effect on HIV1 NL4-3 capsid protein assembly at 50 uM measured every 1 min for 19 mins by Spectrophotometer method; conditions: Human immunodeficiency virus 1
[16] = human, microsomes, 1 h; remark: listed apart in the source
Description: Metabolic stability in human liver microsomes assessed as parent compound remaining in absence of NADPH after 1 hr by LC/MS/MS method

in vitro [17] = conditions: human, liver microsomes
Description: Metabolic stability in human liver microsomes assessed as parent compound remaining in presence of NADPH after 1 hr by LC/MS/MS method

Row | SMILES | EC50 [1] [µM] | CC50 (TZM) [µM] | selectivity ratio (in vitro [2]) | further results
1 | COc1ccc(N(C)C(=O)[C@H](Cc2ccccc2)NC(=O)Cn2cc(-c3cccc(NC(=O)c4ccc(F)cc4)c3)nn2)cc1 | > 16.5 | > 16.5 | – | –
2 | COc1ccc(N(C)C(=O)[C@H](Cc2ccccc2)NC(=O)Cn2cc(-c3ccc(NC(=O)c4ccc(F)cc4)cc3)nn2)cc1 | 13 | > 16.5 | > 1.27 | –
3 | COc1ccc(C(=O)Nc2ccccc2-c2cn(CC(=O)N[C@@H](Cc3ccccc3)C(=O)N(C)c3ccc(OC)cc3)nn2)cc1 | > 16.2 | > 16.2 | – | –
4 | COc1ccc(C(=O)Nc2cccc(-c3cn(CC(=O)N[C@@H](Cc4ccccc4)C(=O)N(C)c4ccc(OC)cc4)nn3)c2)cc1 | > 16.2 | > 16.2 | – | –
5 | COc1ccc(N(C)C(=O)[C@H](Cc2ccccc2)NC(=O)Cn2cc(-c3ccccc3NC(=O)c3ccc(-c4ccccc4)cc3)nn2)cc1 | > 15 | > 15 | – | –
6 | COc1ccc(N(C)C(=O)[C@H](Cc2ccccc2)NC(=O)Cn2cc(-c3ccccc3NC(=O)c3ccc(C#N)cc3)nn2)cc1 | > 16.3 | > 16.3 | – | –
7 | COc1ccc(N(C)C(=O)[C@H](Cc2ccccc2)NC(=O)Cn2cc(-c3ccc(NC(C)=O)cc3)nn2)cc1 | > 19 | > 19 | – | –
8 | COC(=O)c1ccc(C(=O)Nc2ccc(-c3cn(CC(=O)N[C@@H](Cc4ccccc4)C(=O)N(C)c4ccc(OC)cc4)nn3)cc2)cc1 | > 15.5 | > 15.5 | – | –
9 | COc1ccc(N(C)C(=O)[C@H](Cc2ccccc2)NC(=O)Cn2cc(-c3ccc(NC(=O)c4ccc(-c5ccccc5)cc4)cc3)nn2)cc1 | 12.2 | > 15 | > 1.23 | –
10 | COc1ccc(N(C)C(=O)[C@H](Cc2ccccc2)NC(=O)Cn2cc(-c3ccccc3NC(=O)c3ccccc3)nn2)cc1 | 3.74 | > 17 | > 4.54 | –
11 | COc1ccc(N(C)C(=O)[C@H](Cc2ccccc2)NC(=O)Cn2cc(-c3ccc(NC(=O)c4ccccc4OC)cc3)nn2)cc1 | > 16.2 | > 16.2 | – | –
12 | COc1ccc(N(C)C(=O)[C@H](Cc2ccccc2)NC(=O)Cn2cc(-c3cccc(NC(=O)c4ccccc4OC)c3)nn2)cc1 | > 16.2 | > 16.2 | – | –
13 | COc1ccc(N(C)C(=O)[C@H](Cc2ccccc2)NC(=O)Cn2cc(-c3ccc(NC(=O)c4cccc(OC)c4)cc3)nn2)cc1 | > 16.2 | > 16.2 | – | –
14 | COc1ccc(N(C)C(=O)[C@H](Cc2ccccc2)NC(=O)Cn2cc(-c3cccc(NC(C)=O)c3)nn2)cc1 | 14.8 | > 19 | > 1.28 | –
15 | COc1ccc(N(C)C(=O)[C@H](Cc2ccccc2)NC(=O)Cn2cc(-c3ccc(NC(=O)c4ccc(C#N)cc4)cc3)nn2)cc1 | 12.4 | > 16.3 | > 1.32 | –
16 | COc1ccc(N(C)C(=O)[C@H](Cc2ccccc2)NC(=O)Cn2cc(-c3ccc(NC(=O)c4ccccc4)cc3)nn2)cc1 | 12.9 | > 17 | > 1.32 | –
17 | COc1ccc(N(C)C(=O)[C@H](Cc2ccccc2)NC(=O)Cn2cc(-c3ccc(NC(=O)c4ccc(C)cc4)cc3)nn2)cc1 | > 16.6 | > 16.6 | – | –
18 | C[C@]12CC[C@H]3[C@@H](CCC4=CC(=O)CC[C@@]43C)[C@@H]1CC[C@@H]2O [TESTOSTERONE] | – | – | – | t1/2 [3]: 7.4 min; CLH [4]: 188.3 µL/min/mg
19 | COc1ccc(N(C)C(=O)[C@H](Cc2ccccc2)NC(=O)Cn2cc(-c3ccccc3NC(C)=O)nn2)cc1 | 3.99 | > 19 | > 4.76 | –
20 | COc1ccc(N(C)C(=O)[C@H](Cc2ccccc2)NC(=O)Cn2cc(-c3ccccc3NC(=O)c3ccc(C)cc3)nn2)cc1 | > 16.6 | > 16.6 | – | –
21 | COc1ccc(N(C)C(=O)[C@H](Cc2ccccc2)NC(=O)Cn2cc(-c3cccc(NC(=O)c4ccc(C#N)cc4)c3)nn2)cc1 | 12.9 | > 16.3 | > 1.27 | –

Row | SMILES | EC50 [1] [µM] | CC50 (TZM) [µM] | selectivity ratio (in vitro [2]) | further results
22 | COc1ccc(N(C)C(=O)[C@H](Cc2ccccc2)NC(=O)Cn2cc(-c3ccccc3NC(=O)c3ccc(F)cc3)nn2)cc1 | 3.46 | > 16.5 | > 4.76 | –
23 | COc1ccc(C(=O)Nc2ccc(-c3cn(CC(=O)N[C@@H](Cc4ccccc4)C(=O)N(C)c4ccc(OC)cc4)nn3)cc2)cc1 | > 16.2 | > 16.2 | – | –
24 | COc1ccc(N(C)C(=O)[C@H](Cc2ccccc2)NC(=O)Cn2cc(-c3cccc(NC(=O)c4cccc(OC)c4)c3)nn2)cc1 | > 16.2 | > 16.2 | – | –
25 | COc1ccc(N(C)C(=O)[C@H](Cc2ccccc2)NC(=O)Cn2cc(-c3ccc(N)cc3)nn2)cc1 | 13.6 | > 20.6 | > 1.51 | –
26 | COc1ccc(N(C)C(=O)[C@H](Cc2ccccc2)NC(=O)Cn2cc(-c3ccccc3NC(=O)c3cccc(OC)c3)nn2)cc1 | 12.8 | > 16.2 | > 1.27 | –
27 | COc1ccc(N(C)C(=O)[C@H](Cc2ccccc2)NC(=O)Cn2cc(-c3ccccc3NC(=O)c3cccc(F)c3)nn2)cc1 | 3.3 | > 16.5 | > 4.99 | Kd [5]: 4.99 µM; Kd [6]: 6.8 µM
28 | COc1ccc(N(C)C(=O)[C@H](Cc2ccccc2)NC(=O)Cn2cc(-c3cccc(NC(=O)c4cccc(F)c4)c3)nn2)cc1 | 9.56 | > 16.5 | > 1.72 | –
29 | COC(=O)c1ccc(C(=O)Nc2ccccc2-c2cn(CC(=O)N[C@@H](Cc3ccccc3)C(=O)N(C)c3ccc(OC)cc3)nn2)cc1 | > 15.5 | > 15.5 | – | –
30 | COc1ccc(N(C)C(=O)[C@H](Cc2ccccc2)NC(=O)Cn2cc(-c3cccc(NC(=O)c4ccccc4F)c3)nn2)cc1 | 13.5 | > 16.5 | > 1.22 | –
31 | COC(=O)c1ccc(C(=O)Nc2cccc(-c3cn(CC(=O)N[C@@H](Cc4ccccc4)C(=O)N(C)c4ccc(OC)cc4)nn3)c2)cc1 | > 15.5 | > 15.5 | – | –
32 | Cc1[nH]c2ccccc2c1CC(=O)N[C@@H](Cc1ccccc1)C(=O)N(C)c1ccccc1 | 0.28 | > 23.5 | – | Kd [6]: 2.4 µM; IC50 [7]: 0.056 µM; IC50 [8]: 0.23 µM; inhibition [9]: Active; Stabilty [10]: 87.3%; Stabilty [11]: 83.4%; Stabilty [12]: 86.5%; Stabilty [13]: 85.6%; Activity (U87/CD4/CCR5 [14]): Active; CLH [4]: 2403 µL/min/mg
33 | COc1ccc(N(C)C(=O)[C@H](Cc2ccccc2)NC(=O)Cn2cc(-c3ccc(NC(=O)c4cccc(F)c4)cc3)nn2)cc1 | 12.7 | > 16.5 | > 1.3 | –
34 | COc1ccc(N(C)C(=O)[C@H](Cc2ccccc2)NC(=O)Cn2cc(-c3ccccc3NC(=O)c3ccccc3OC)nn2)cc1 | 8.41 | > 16.2 | > 1.92 | –
35 | CC(C)[N+](C)(CCOC(=O)C1c2ccccc2Oc2ccccc21)C(C)C.[Br-] [PROPANTHELINE BROMIDE] | – | – | – | Stabilty [10]: 47.7%; Stabilty [11]: 9.1%; Stabilty [12]: 0.6%
36 | COc1ccc(N(C)C(=O)[C@H](Cc2ccccc2)NC(=O)Cn2cc(-c3cccc(NC(=O)c4ccc(-c5ccccc5)cc4)c3)nn2)cc1 | > 15 | > 15 | – | –
37 | COc1ccc(N(C)C(=O)[C@H](Cc2ccccc2)NC(=O)Cn2cc(-c3cccc(N)c3)nn2)cc1 | 3.3 | > 20.6 | > 6.25 | Kd [5]: 4 µM; Kd [6]: 15.8 µM
38 | COc1ccc(N(C)C(=O)[C@H](Cc2ccccc2)NC(=O)Cn2cc(-c3ccc(NC(=O)c4ccccc4F)cc3)nn2)cc1 | 11.9 | > 16.5 | > 1.39 | –
39 | COc1ccc(N(C)C(=O)[C@H](Cc2ccccc2)NC(=O)Cn2cc(-c3ccccc3NC(=O)c3ccccc3F)nn2)cc1 | 3.13 | > 16.5 | > 5.27 | Kd [5]: 6.04 µM; Kd [6]: 7.95 µM; IC50 [7]: 8.18 µM; IC50 [8]: 0.32 µM; inhibition at 10 µM ([9]; Human immunodeficiency virus 1, NL4-3, U87/CD4/CCR5): 15%; Activity (U87/CD4/CCR5 [15]): inactive; Stabilty [10]: 91.3%; Stabilty [11]: 94.6%; Stabilty [12]: 86.9%; Stabilty [13]: 107.4%; t1/2 [3]: 0.9 min; CLH [4]: 1559.4 µL/min/mg; Stabilty [16]: 122.1%; remaining at 1 h (in vitro [17]): 0.3%
40 | COc1ccc(N(C)C(=O)[C@H](Cc2ccccc2)NC(=O)Cn2cc(-c3ccccc3N)nn2)cc1 | 3.92 | > 20.6 | > 5.27 | –
41 | COc1ccc(N(C)C(=O)[C@H](Cc2ccccc2)NC(=O)Cn2cc(-c3cccc(NC(=O)c4ccc(C)cc4)c3)nn2)cc1 | > 16.6 | > 16.6 | – | –
42 | COc1ccc(N(C)C(=O)[C@H](Cc2ccccc2)NC(=O)Cn2cc(-c3cccc(NC(=O)c4ccccc4)c3)nn2)cc1 | 12.7 | > 17 | > 1.33 | –
